In ChEMBL document CHEMBL3885881, “DrugMatrix”:

Species: Rattus norvegicus
Test: DrugMatrix - Regimen: Daily Repeat
Assay type: toxicity, organism-based, Sprague-Dawley
Set-up: regimen Daily Repeat, gender Male, age 6-8 weeks
Conditions: in vivo, po, route oral GAVAGE, vehicle .5 % CMC; for ABSOLUTE BASOPHIL / ABSOLUTE EOSINOPHIL / ABSOLUTE LYMPHOCYTE / ABSOLUTE MONOCYTE / BASOPHIL / ERYTHROCYTE COUNT / HEMATOCRIT / HEMOGLOBIN / LYMPHOCYTE / MEAN CORPUSCULAR HEMOGLOBIN / MEAN CORPUSCULAR HEMOGLOBIN CONCENTRATION / MEAN CORPUSCULAR VOLUME / NEUTROPHIL / NUCLEATED RED BLOOD CELLS / PLATELET COUNT / ABSOLUTE SEGMENTED NEUTROPHIL: tissue Blood; for ALANINE AMINOTRANSFERASE / ALKALINE PHOSPHATASE / ASPARTATE AMINOTRANSFERASE / BLOOD UREA NITROGEN / CARBON DIOXIDE / CHOLESTEROL / CREATINE PHOSPHOKINASE / CREATININE / GLUCOSE / LACTATE DEHYDROGENASE / LIPASE / PHOSPHORUS / POTASSIUM / SODIUM / TOTAL BILIRUBIN / TOTAL PROTEIN: tissue Plasma
[1] = 0 mg/kg, 72 h, dose level Control, time 3 day
[2] = 0 mg/kg, 120 h, dose level Control, time 5 day
[3] = 0.06 mg/kg, 72 h, dose level Low, time 3 day

Question: How did the “ABSOLUTE BASOPHIL” value [1] turn out when CC(=O)CC(c1ccccc1)c1c(O)c2ccccc2oc1=O (stereo not given) [WARFARIN] was run?
Answer: 0 CELLS/uL

Question: And the “ABSOLUTE EOSINOPHIL” value [1]?
Answer: 284.5 CELLS/uL

Question: And the “ABSOLUTE LYMPHOCYTE” value [1]?
Answer: 11670.5 CELLS/uL

Question: And the “ABSOLUTE MONOCYTE” value [1]?
Answer: 420.83 CELLS/uL

Question: And the BASOPHIL [1]?
Answer: 0%

Question: And the “ERYTHROCYTE COUNT” value [1]?
Answer: 5.38 x10E6/uL

Question: What about the HEMATOCRIT [1] of the same compound?
Answer: 34.05%

Question: What about the HEMOGLOBIN [1] of the same compound?
Answer: 12.75 G/DL

Question: And the LYMPHOCYTE [1]?
Answer: 88.33%

Question: What about the “MEAN CORPUSCULAR HEMOGLOBIN” value [1] of the same compound?
Answer: 23.73 pg

Question: What about the “MEAN CORPUSCULAR HEMOGLOBIN CONCENTRATION” value [1] of the same compound?
Answer: 37.43 G/DL

Question: What about the “MEAN CORPUSCULAR VOLUME” value [1] of the same compound?
Answer: 63.4 fL

Question: What about the NEUTROPHIL [1] of the same compound?
Answer: 7.17%

Question: And the “NUCLEATED RED BLOOD CELLS” value [1]?
Answer: 0 /100WBC

Question: What about the “PLATELET COUNT” value [1] of the same compound?
Answer: 1184.67 x10E3/uL

Question: And the “ALANINE AMINOTRANSFERASE” value [1]?
Answer: 45.33 u/L

Question: What about the “ALKALINE PHOSPHATASE” value [1] of the same compound?
Answer: 388.83 u/L

Question: What about the “ASPARTATE AMINOTRANSFERASE” value [1] of the same compound?
Answer: 84.83 u/L

Question: And the “BLOOD UREA NITROGEN” value [1]?
Answer: 15.5 mg/dL

Question: What about the “CARBON DIOXIDE” value [1] of the same compound?
Answer: 27 mmol/L

Question: And the CHOLESTEROL [1]?
Answer: 76.67 mg/dL

Question: What about the “CREATINE PHOSPHOKINASE” value [1] of the same compound?
Answer: 301 u/L

Question: What about the CREATININE [1] of the same compound?
Answer: 0.21 mg/dL

Question: And the GLUCOSE [1]?
Answer: 168.83 mg/dL

Question: And the “LACTATE DEHYDROGENASE” value [1]?
Answer: 294.83 u/L

Question: What about the LIPASE [1] of the same compound?
Answer: 9.8 u/L

Question: What about the PHOSPHORUS [1] of the same compound?
Answer: 13.25 mg/dL

Question: And the POTASSIUM [1]?
Answer: 6.41 MEQ/L

Question: And the SODIUM [1]?
Answer: 143.72 MEQ/L

Question: What about the “TOTAL BILIRUBIN” value [1] of the same compound?
Answer: 0.22 mg/dL

Question: And the “TOTAL PROTEIN” value [1]?
Answer: 5.98 G/DL

Question: What about the “ABSOLUTE BASOPHIL” value [2] of the same compound?
Answer: 0 CELLS/uL

Question: What about the “ABSOLUTE EOSINOPHIL” value [2] of the same compound?
Answer: 190.67 CELLS/uL

Question: What about the “ABSOLUTE LYMPHOCYTE” value [2] of the same compound?
Answer: 12549.5 CELLS/uL

Question: And the “ABSOLUTE MONOCYTE” value [2]?
Answer: 276 CELLS/uL

Question: What about the “ABSOLUTE SEGMENTED NEUTROPHIL” value [2] of the same compound?
Answer: 1067.17 CELLS/uL

Question: And the BASOPHIL [2]?
Answer: 0%

Question: What about the “ERYTHROCYTE COUNT” value [2] of the same compound?
Answer: 5.66 x10E6/uL

Question: And the HEMATOCRIT [2]?
Answer: 35.92%

Question: What about the HEMOGLOBIN [2] of the same compound?
Answer: 13.65 G/DL

Question: And the LYMPHOCYTE [2]?
Answer: 89%

Question: And the “MEAN CORPUSCULAR HEMOGLOBIN” value [2]?
Answer: 24.12 pg

Question: What about the “MEAN CORPUSCULAR HEMOGLOBIN CONCENTRATION” value [2] of the same compound?
Answer: 38.03 G/DL

Question: What about the “MEAN CORPUSCULAR VOLUME” value [2] of the same compound?
Answer: 63.47 fL

Question: What about the NEUTROPHIL [2] of the same compound?
Answer: 7.67%

Question: What about the “NUCLEATED RED BLOOD CELLS” value [2] of the same compound?
Answer: 0.17 /100WBC

Question: What about the “PLATELET COUNT” value [2] of the same compound?
Answer: 1251.67 x10E3/uL

Question: What about the “ALANINE AMINOTRANSFERASE” value [2] of the same compound?
Answer: 43.33 u/L

Question: What about the “ALKALINE PHOSPHATASE” value [2] of the same compound?
Answer: 365.67 u/L

Question: And the “ASPARTATE AMINOTRANSFERASE” value [2]?
Answer: 83.67 u/L

Question: What about the “BLOOD UREA NITROGEN” value [2] of the same compound?
Answer: 18.17 mg/dL

Question: And the “CARBON DIOXIDE” value [2]?
Answer: 28.67 mmol/L

Question: And the CHOLESTEROL [2]?
Answer: 71.5 mg/dL

Question: What about the “CREATINE PHOSPHOKINASE” value [2] of the same compound?
Answer: 284.5 u/L

Question: What about the CREATININE [2] of the same compound?
Answer: 0.21 mg/dL

Question: What about the GLUCOSE [2] of the same compound?
Answer: 161.67 mg/dL

Question: What about the “LACTATE DEHYDROGENASE” value [2] of the same compound?
Answer: 259.67 u/L

Question: What about the LIPASE [2] of the same compound?
Answer: 9.5 u/L

Question: What about the PHOSPHORUS [2] of the same compound?
Answer: 12.45 mg/dL

Question: What about the POTASSIUM [2] of the same compound?
Answer: 6.49 MEQ/L

Question: What about the SODIUM [2] of the same compound?
Answer: 144.25 MEQ/L

Question: What about the “TOTAL BILIRUBIN” value [2] of the same compound?
Answer: 0.2 mg/dL

Question: And the “TOTAL PROTEIN” value [2]?
Answer: 6.1 G/DL

Question: And the “ABSOLUTE BASOPHIL” value [3]?
Answer: 0 CELLS/uL

Question: And the “ABSOLUTE EOSINOPHIL” value [3]?
Answer: 18.67 CELLS/uL

Question: And the “ABSOLUTE LYMPHOCYTE” value [3]?
Answer: 6429.67 CELLS/uL

Question: What about the “ABSOLUTE MONOCYTE” value [3] of the same compound?
Answer: 120.33 CELLS/uL

Question: And the “ABSOLUTE SEGMENTED NEUTROPHIL” value [3]?
Answer: 364.67 CELLS/uL

Question: And the BASOPHIL [3]?
Answer: 0%

Question: What about the “ERYTHROCYTE COUNT” value [3] of the same compound?
Answer: 5.26 x10E6/uL

Question: And the HEMATOCRIT [3]?
Answer: 33.97%

Question: What about the HEMOGLOBIN [3] of the same compound?
Answer: 12.8 G/DL

Question: What about the LYMPHOCYTE [3] of the same compound?
Answer: 92.67%

Question: And the “MEAN CORPUSCULAR HEMOGLOBIN” value [3]?
Answer: 24.33 pg

Question: What about the “MEAN CORPUSCULAR HEMOGLOBIN CONCENTRATION” value [3] of the same compound?
Answer: 37.67 G/DL

Question: And the “MEAN CORPUSCULAR VOLUME” value [3]?
Answer: 64.6 fL

Question: What about the NEUTROPHIL [3] of the same compound?
Answer: 5.33%

Question: What about the “NUCLEATED RED BLOOD CELLS” value [3] of the same compound?
Answer: 0 /100WBC

Question: And the “PLATELET COUNT” value [3]?
Answer: 1234.33 x10E3/uL

Question: And the “ALANINE AMINOTRANSFERASE” value [3]?
Answer: 50 u/L

Question: What about the “ALKALINE PHOSPHATASE” value [3] of the same compound?
Answer: 307.67 u/L

Question: And the “ASPARTATE AMINOTRANSFERASE” value [3]?
Answer: 80.67 u/L

Question: What about the “BLOOD UREA NITROGEN” value [3] of the same compound?
Answer: 15.33 mg/dL

Question: What about the “CARBON DIOXIDE” value [3] of the same compound?
Answer: 28.67 mmol/L

Question: What about the CHOLESTEROL [3] of the same compound?
Answer: 72.67 mg/dL

Question: What about the “CREATINE PHOSPHOKINASE” value [3] of the same compound?
Answer: 222.67 u/L

Question: What about the CREATININE [3] of the same compound?
Answer: 0.21 mg/dL

Question: What about the GLUCOSE [3] of the same compound?
Answer: 142.33 mg/dL

Question: And the “LACTATE DEHYDROGENASE” value [3]?
Answer: 174.67 u/L

Question: What about the LIPASE [3] of the same compound?
Answer: 9.5 u/L

Question: What about the PHOSPHORUS [3] of the same compound?
Answer: 12.87 mg/dL

Question: What about the POTASSIUM [3] of the same compound?
Answer: 6.97 MEQ/L

Question: What about the SODIUM [3] of the same compound?
Answer: 146.9 MEQ/L

Question: And the “TOTAL BILIRUBIN” value [3]?
Answer: 0.23 mg/dL

Question: What about the “TOTAL PROTEIN” value [3] of the same compound?
Answer: 6.03 G/DL
